Assay results reported in article PMC4506051, “Pharmacokinetic Profiles of Active Ingredients and Its Metabolites Derived from Rikkunshito, a Ghrelin Enhancer, in Healthy Japanese Volunteers: A Cross-Over, Randomized Study” (PLoS ONE, 2015).

Tests used:
[1] = Stability of ingredients in gastric pH solution (pH 1.2, 37°C); type: physicochemical
Procedure: Rikkunshito gradually dissolved in acidic solution (pH 1.2) at 37°C, and the concentration of atractylodin after adding 0.25, 0.5, 1, and 2 h was measured by gas chromatography–mass spectrometry.

[2] = Exploratory trial: plasma concentration of rikkunshito ingredients after single oral rikkunshito 7.5 g; type: in vivo
Procedure: A random sequence was generated using a computer. The safety endpoint was evaluated in all volunteers.
(§1) In the first exploratory trial, 20-mL blood samples were collected from the cutaneous vein in the subjects’ forearm via a blood sampling tube that contained heparin at 0 (preadministration), 0.5, 1, 2, 4, and 8 h after a single oral administration of rikkunshito (Lot E24652). The dose of rikkunshito used in this trial was 7.5 g/day, which is the clinical daily dose, to widely explore rikkunshito-derived ingredients that enter the blood. Along with plasma, urine samples were collected at three points: between dinner and bedtime (preadministration), between 0 and 4 h after administration, and between 4 and 8 h after administration. The blood was immediately centrifuged at 1700 ×g for 10 min to obtain plasma. Plasma and urine fractions were stored at −80°C or lower until analysis.
(§2) For quantification of synephrine, 5 µL of standard solution or methanol was added to 100 µL plasma or urine samples followed by mixing. Ten microliters of erythromycin [internal standard (IS)] solution was added to the solutions followed by mixing and centrifugation (20,400 ×g, 5 min, 4°C). The supernatants were loaded onto an Ostro 96-well plate (Waters) and centrifuged (1500 ×g, 3 min, 4°C) followed by injection into the LC–MS/MS.
(§3) For quantification of 30 ingredients other than atractylodin and synephrine, 25 µL of standard solution or methanol was added to 500 µL plasma or urine samples followed by mixing. Atractylenolide III or digoxin (IS) solution (50 μL) was added to the solutions followed by mixing. For urine, 400 µL of blank plasma was added to the solutions. Ammonium acetate solution (100 mM, 100 or 400 µL) was added to the solutions followed by mixing. For enzymatic treatment, plasma and urine samples were incubated with β-glucuronidase (100 units in 100 mM ammonium acetate) for 2 h at 37°C. A solid-phase cartridge (OASIS HLB, 30 mg/1cc, Waters) was conditioned with methanol and 10 mM ammonium acetate solution, and the samples were loaded onto the cartridge. The cartridge was washed water : methanol (9:1, v/v), and 1.5 mL of methanol and 30 µL of propylene glycol were added to the cartridge to elute the analytes. The mixtures were dried at 25°C under a stream of nitrogen gas. Furthermore, 100 μL of 10 mM ammonium acetate : methanol (8:2, v/v) was added to the dried samples followed by mixing and sonication. The solutions were filtered (0.22 µm) and followed by injection into the LC–MS/MS system. […] Those analytical conditions are summarized in S2 Table and S3 Table.

[3] = Exploratory trial: amount of rikkunshito ingredients in urine; type: in vivo, human; conditions: mean ± S.D., n = 4; for Amount in urine, 0–4 h: 0–4 h after single oral rikkunshito 7.5 g; for Amount in urine, 4–8 h: 4–8 h after single oral rikkunshito 7.5 g; for Amount in urine, Pre: preadministration (between dinner and bedtime)
Procedure: as §1, §2, §3

[4] = rikkunshito in acidic solution (pH 1.2) at 37°C, 0.5 h
[5] = rikkunshito in acidic solution (pH 1.2) at 37°C, 1 h
[6] = rikkunshito in acidic solution (pH 1.2) at 37°C, 2 h

Compound | Stability in gastric pH solution, Quantitative value ([1]; 0.5 h, pH 1.2) [ng/mL] | Stability in gastric pH solution, Quantitative value ([1]; 1 h, pH 1.2) [ng/mL] | Stability in gastric pH solution, Quantitative value ([1]; 2 h, pH 1.2) [ng/mL] | Plasma concentration, 0 h ([2]; in vivo, po) | Plasma concentration, 0.5 h ([2]; in vivo, po) | Plasma concentration, 1 h ([2]; in vivo, po) | Plasma concentration, 2 h ([2]; in vivo, po) | Plasma concentration, 8 h ([2]; in vivo, po) | Amount in urine, 0–4 h [3] | Amount in urine, 4–8 h [3] [ng] | Amount in urine, Pre [3] | Stability in gastric pH solution, Quantitative value [1, 4] [ng/mL] | Stability in gastric pH solution, Quantitative value [1, 5] [ng/mL] | Stability in gastric pH solution, Quantitative value [1, 6] [ng/mL] | also measured
CC(C)=CCC[C@](C)(O[C@@H]1O[C@H](CO[C@@H]2O[C@H](CO)[C@@H](O)[C@H](O)[C@H]2O)[C@@H](O)[C@H](O)[C@H]1O)[C@H]1CC[C@]2(C)[C@@H]1[C@H](O)C[C@@H]1[C@@]3(C)CC[C@H](O[C@@H]4O[C@H](CO)[C@@H](O)[C@H](O)[C@H]4O[C@@H]4O[C@H](CO)[C@@H](O)[C@H](O)[C@H]4O)C(C)(C)[C@@H]3CC[C@]12C [Ginsenoside Rb1] | 297 | 202 | 86.4 | BQL | BQL | BQL | BQL | BQL |  |  |  |  |  |  | concentration at 4 h ([2]; human, in vivo, po): 0.175 ± 0.118 ng/mL
CC(C)=CCC[C@](C)(O[C@@H]1O[C@H](CO[C@@H]2OC[C@H](O)[C@H](O)[C@H]2O)[C@@H](O)[C@H](O)[C@H]1O)[C@H]1CC[C@]2(C)[C@@H]1[C@H](O)C[C@@H]1[C@@]3(C)CC[C@H](O[C@@H]4O[C@H](CO)[C@@H](O)[C@H](O)[C@H]4O[C@@H]4O[C@H](CO)[C@@H](O)[C@H](O)[C@H]4O)C(C)(C)[C@@H]3CC[C@]12C [Ginsenoside Rb2] | 275 | 168 | 77.3 |  |  |  |  |  | 202 ± 202 ng | 84.6 ± 90.1 | BQL |  |  |  | 
CC(C)=CCC[C@](C)(O[C@@H]1O[C@H](CO[C@@H]2O[C@@H](CO)[C@H](O)[C@H]2O)[C@@H](O)[C@H](O)[C@H]1O)[C@H]1CC[C@]2(C)[C@@H]1[C@H](O)C[C@@H]1[C@@]3(C)CC[C@H](O[C@@H]4O[C@H](CO)[C@@H](O)[C@H](O)[C@H]4O[C@@H]4O[C@H](CO)[C@@H](O)[C@H](O)[C@H]4O)C(C)(C)[C@@H]3CC[C@]12C [Ginsenoside Rc] | 188 | 115 | 39.3 | BQL | BQL | BQL | BQL | BQL |  |  |  |  |  |  | concentration at 4 h ([2]; human, in vivo, po): 0.0303 ± 0.0605 ng/mL
CC(C)=CCC[C@](C)(O[C@@H]1O[C@H](CO)[C@@H](O)[C@H](O)[C@H]1O)[C@H]1CC[C@]2(C)[C@@H]1[C@H](O)C[C@@H]1[C@@]3(C)CC[C@H](O[C@@H]4O[C@H](CO)[C@@H](O)[C@H](O)[C@H]4O[C@@H]4O[C@H](CO)[C@@H](O)[C@H](O)[C@H]4O)C(C)(C)[C@@H]3CC[C@]12C [Ginsenoside Rd] | 98.5 | 68.1 | 20.3 |  |  |  |  |  |  |  |  |  |  |  | Plasma concentration, 0 h ([2]; 0 h (preadministration), single oral rikkunshito 7.5 g, mean ± S.D., n = 4): BQL; Plasma concentration, 0.5 h ([2]; 0.5 h after single oral rikkunshito 7.5 g, mean ± S.D., n = 4): BQL; Plasma concentration, 2 h ([2]; 2 h after single oral rikkunshito 7.5 g, mean ± S.D., n = 4): BQL; Plasma concentration, 4 h ([2]; 4 h after single oral rikkunshito 7.5 g, mean ± S.D., n = 4): BQL; Plasma concentration, 8 h ([2]; 8 h after single oral rikkunshito 7.5 g, mean ± S.D., n = 4): BQL; concentration at 1 h ([2]; human, in vivo, 1 h after single oral rikkunshito 7.5 g, mean ± S.D., n = 4): 0.0308 ± 0.0615 ng/mL
CC(C)=CCC[C@](C)(O[C@@H]1O[C@H](CO)[C@@H](O)[C@H](O)[C@H]1O)[C@H]1CC[C@]2(C)[C@@H]1[C@H](O)C[C@@H]1[C@@]3(C)CC[C@H](O)C(C)(C)[C@@H]3[C@@H](O[C@@H]3O[C@H](CO)[C@@H](O)[C@H](O)[C@H]3O[C@@H]3O[C@@H](C)[C@H](O)[C@@H](O)[C@H]3O)C[C@]12C [Ginsenoside Re] | 96.7 | 58.4 | 23.7 |  |  |  |  |  | BQL | 30.6 ± 61.2 | BQL |  |  |  | 
CC(C)=CCC[C@](C)(O)[C@H]1CC[C@]2(C)[C@@H]1[C@H](O)C[C@@H]1[C@@]3(C)CC[C@H](O)C(C)(C)[C@@H]3[C@@H](O[C@@H]3O[C@H](CO)[C@@H](O)[C@H](O)[C@H]3O[C@@H]3O[C@H](CO)[C@@H](O)[C@H](O)[C@H]3O)C[C@]12C [Ginsenoside Rf] |  |  |  |  |  |  |  |  | 48.2 ± 64.4 ng | 23.0 ± 20.4 | BQL | 190 | 159 | 113 | 
CC(C)=CCC[C@](C)(O[C@@H]1O[C@H](CO)[C@@H](O)[C@H](O)[C@H]1O)[C@H]1CC[C@]2(C)[C@@H]1[C@H](O)C[C@@H]1[C@@]3(C)CC[C@H](O)C(C)(C)[C@@H]3[C@@H](O[C@@H]3O[C@H](CO)[C@@H](O)[C@H](O)[C@H]3O)C[C@]12C [Ginsenoside Rg1] | 174 | 118 | 41.6 |  |  |  |  |  | 620 ± 331 ng | 638 ± 319 | BQL |  |  |  | 
CC1(C)[C@@H](O[C@@H]2O[C@H](C(=O)O)[C@@H](O)[C@H](O)[C@H]2O)CC[C@]2(C)[C@H]3C(=O)C=C4[C@@H]5C[C@@](C)(C(=O)O)CC[C@]5(C)CC[C@@]4(C)[C@]3(C)CC[C@@H]12 [Glycyrrhetic acid 3-O-glucuronide, Glycyrrhetinic acid 3-O-glucuronide] |  |  |  | BQL | BQL | 0.0448 ± 0.0895 ng/mL | 0.244 ± 0.0735 ng/mL | 0.247 ± 0.0622 ng/mL | BQL | 6.94 ± 13.9 | BQL |  |  |  | Plasma concentration, 4 h ([2]; in vivo, po): 0.327 ± 0.0656 ng/mL
CC1(C)CC[C@]2(C(=O)O)CC[C@]3(C)C(=CC[C@@H]4[C@@]5(C)CC[C@H](O)C(C)(C)[C@@H]5CC[C@]43C)[C@@H]2C1 [Oleanolic acid] |  |  |  | BQL | BQL | BQL |  |  |  |  |  | 3.61 | 3.54 | 3.28 | concentration at 2 h ([2]; human, in vivo, po): 0.198 ± 0.395 ng/mL; concentration at 4 h ([2]; human, in vivo, po): 0.903 ± 0.983 ng/mL; concentration at 8 h ([2]; human, in vivo, po): 1.12 ± 0.89 ng/mL; Cmax ([2]; human, in vivo, rikkunshito 7.5 g, four subjects, highest mean concentration over 0–8 h, read-out: C max in plasma (exploratory trial)): 1.12 ng/mL
COc1ccc(-c2cc(=O)c3c(OC)c(OC)c(OC)c(OC)c3o2)cc1 [Tangeretin] | 5.50 | 6.62 | 5.95 | BQL |  | BQL | BQL | BQL |  |  |  |  |  |  | concentration at 0.5 h ([2]; human, in vivo, po): 0.00573 ± 0.0115 ng/mL; Plasma concentration, 4 h ([2]; in vivo, po): BQL
CCCCCCCCC[C@H](O)CC(=O)CCc1ccc(O)c(OC)c1 [[10]-gingerol, [10]-Gingerol] |  |  |  |  |  |  |  |  |  |  |  | 8.07 | 7.53 | 7.62 | 
CC(C)=CCC[C@](C)(O)[C@H]1CC[C@]2(C)[C@@H]1[C@H](O)C[C@@H]1[C@@]3(C)CC[C@H](O)C(C)(C)[C@@H]3[C@@H](O[C@@H]3O[C@H](CO)[C@@H](O)[C@H](O)[C@H]3O[C@@H]3O[C@@H](C)[C@H](O)[C@@H](O)[C@H]3O)C[C@]12C [ginsenoside Rg2, Ginsenoside Rg2] |  |  |  |  |  |  |  |  |  |  |  | 121 | 157 | 126 | 
